Assay results taken from patent publication US12173018B2, “Penicillin-binding protein inhibitors” (priority 2018, dated 2024).
Where two headings read alike, the source gives them in different places.

How the values were obtained:
E. coli PBP3 = E. coli PBP3 (Escherichia coli (strain K12), UniProt P0AD68); assay: E. coli PBP3 Bocillin-FL fluorescence polarization competition binding assay
Procedure, shortened: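 Purified PBP (1.5 μM final) was combined with test compound (0–1000 μM) and Bocillin-FL (fluorescent penicillin V, 0.1 μM final) in 50 mM Hepes pH 8.0, 300 mM NaCl, 5% glycerol.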

P. aeruginosa ATCC 35151 = assay: microbe, parasite or virus in culture; type: cell-based; details: Pseudomonas aeruginosa
Procedure, shortened: (§1)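 MIC = lowest concentration showing no visible growth after 16-20 h at 37° C. Cation-adjusted MH broth, 2-fold serial dilutions, starting inoculum 5×10^5 CFU/mL, per CLSI methods.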

[1] = tested on: P. aeruginosa (ΔmexAB-oprM); assay: microbe, parasite or virus in culture; type: cell-based; details: Pseudomonas aeruginosa, read-out: MIC P. aeruginosa ΔmexAB-OprM
Procedure, shortened: as §1

A. baumannii ATCC 19606 = assay: Broth microdilution MIC, A. baumannii ATCC 19606; type: cell-based; details: Acinetobacter baumannii
Procedure, shortened: as §1

E. coli PBP1b = E. coli PBP1b (Escherichia coli (strain K12), UniProt P02919); assay: Radioligand competition binding assay with 14C-labeled boronic acid probe, PBP1b
Sequence of E. coli PBP1b (P02919 whole entry): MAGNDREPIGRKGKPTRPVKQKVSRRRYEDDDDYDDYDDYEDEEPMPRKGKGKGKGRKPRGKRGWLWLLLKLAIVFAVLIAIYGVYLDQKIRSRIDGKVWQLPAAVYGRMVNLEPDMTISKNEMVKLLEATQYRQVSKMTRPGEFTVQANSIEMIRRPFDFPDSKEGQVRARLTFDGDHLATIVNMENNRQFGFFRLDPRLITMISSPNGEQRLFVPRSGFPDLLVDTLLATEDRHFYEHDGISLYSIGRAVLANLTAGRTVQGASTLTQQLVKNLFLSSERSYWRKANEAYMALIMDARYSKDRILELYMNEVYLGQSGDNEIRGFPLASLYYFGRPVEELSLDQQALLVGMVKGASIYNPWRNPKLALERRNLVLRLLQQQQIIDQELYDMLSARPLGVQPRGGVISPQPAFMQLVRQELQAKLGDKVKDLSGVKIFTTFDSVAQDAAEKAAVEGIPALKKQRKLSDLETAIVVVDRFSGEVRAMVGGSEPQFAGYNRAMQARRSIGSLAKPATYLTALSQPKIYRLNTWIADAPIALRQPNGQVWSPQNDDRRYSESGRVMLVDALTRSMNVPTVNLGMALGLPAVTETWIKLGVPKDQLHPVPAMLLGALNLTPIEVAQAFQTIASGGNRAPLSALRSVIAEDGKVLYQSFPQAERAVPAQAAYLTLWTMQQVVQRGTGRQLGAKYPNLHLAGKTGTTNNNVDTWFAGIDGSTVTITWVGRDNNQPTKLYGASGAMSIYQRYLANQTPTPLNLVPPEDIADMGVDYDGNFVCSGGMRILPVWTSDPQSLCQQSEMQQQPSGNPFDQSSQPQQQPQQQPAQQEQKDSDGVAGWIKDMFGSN

[2] = fluorescence polarization competition binding with Bocillin-FL, read-out: E. coli K12 PBP3 Potency
[3] = ATCC35151, hyper-permeable P. aeruginosa ATCC 35151, read-out: MIC P. aeruginosa ATCC 35151
[4] = ATCC19606, A. baumannii ATCC 19606, broth microdilution, read-out: MIC A. baumannii ATCC 19606

Sequence of E. coli PBP3 (P0AD68 whole entry): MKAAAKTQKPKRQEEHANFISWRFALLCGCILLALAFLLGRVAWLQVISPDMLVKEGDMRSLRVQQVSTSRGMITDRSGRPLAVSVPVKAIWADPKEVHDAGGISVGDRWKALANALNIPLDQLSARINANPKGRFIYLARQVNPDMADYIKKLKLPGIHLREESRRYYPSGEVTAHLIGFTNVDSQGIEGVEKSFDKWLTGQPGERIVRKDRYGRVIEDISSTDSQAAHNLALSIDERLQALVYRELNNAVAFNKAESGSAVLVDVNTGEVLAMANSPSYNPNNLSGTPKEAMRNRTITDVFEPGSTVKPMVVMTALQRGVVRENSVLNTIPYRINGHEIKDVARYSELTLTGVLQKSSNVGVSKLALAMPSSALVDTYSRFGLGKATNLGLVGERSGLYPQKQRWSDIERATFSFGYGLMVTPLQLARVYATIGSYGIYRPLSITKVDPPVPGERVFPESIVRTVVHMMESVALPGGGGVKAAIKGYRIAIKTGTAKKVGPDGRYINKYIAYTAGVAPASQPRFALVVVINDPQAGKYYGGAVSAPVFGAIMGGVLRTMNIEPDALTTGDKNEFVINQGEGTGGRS

Compound	EC50 (E. coli PBP3; [2])	MIC (P. aeruginosa ATCC 35151; [3])	MIC [1]	EC50 (E. coli PBP3)	MIC (A. baumannii ATCC 19606; [4])	further results
CCN1CCN(C(=O)NC(C(=O)N[C@H]2Cc3cccc(C(=O)O)c3OB2O)c2ccc(S(N)(=O)=O)cc2)C(=O)C1=O (stereo partly drawn) [Example 102, (3R)-3-(2-(4-ethyl-2,3-dioxopiperazine-1-carboxamido)-2-(4-sulfamoylphenyl)acetamido)-2-hydroxy-3,4-dihydro-2H-benzo[e][1,2]oxaborinine-8-carboxylic acid]	< 30 µM	–	–	–	–	–
CCN1CCN(C(=O)NC(C(=O)N[C@H]2Cc3cccc(C(=O)O)c3OB2O)c2ncc(O)cc2F)C(=O)C1=O (stereo partly drawn) [Example 135, (3R)-3-(2-(4-ethyl-2,3-dioxopiperazine-1-carboxamido)-2-(3-fluoro-5-hydroxypyridin-2-yl)acetamido)-2-hydroxy-3,4-dihydro-2H-benzo[e][1,2]oxaborinine-8-carboxylic acid]	< 30 µM	–	–	–	–	–
NCCCN1CCN(C(=O)NC(C(=O)N[C@H]2Cc3cccc(C(=O)O)c3OB2O)c2ccc(O)c(O)c2Cl)C(=O)C1=O (stereo partly drawn) [Example 233, (3R)-3-(2-(4-(3-aminopropyl)-2,3-dioxopiperazine-1-carboxamido)-2-(2-chloro-3,4-dihydroxyphenyl)acetamido)-2-hydroxy-3,4-dihydro-2H-benzo[e][1,2]oxaborinine-8-carboxylic acid]	–	< 0.25 µg/mL	< 0.25 µg/mL	30 to 500 µM	2 to 4 µg/mL	–
CCN1CCN(C(=O)NC(C(=O)N[C@H]2Cc3cccc(C(=O)O)c3OB2O)c2ccc(O)c(O)c2Cl)C(=O)C1=O (stereo partly drawn) [Example 37, (3R)-3-(2-(2-chloro-3,4-dihydroxyphenyl)-2-(4-ethyl-2,3-dioxopiperazine-1-carboxamido)acetamido)-2-hydroxy-3,4-dihydro-2H-benzo[e][1,2]oxaborinine-8-carboxylic acid]	< 30 µM	–	–	–	–	–
CCN1C[C@H](CO)N(C(=O)NC(C(=O)N[C@H]2Cc3cccc(C(=O)O)c3OB2O)c2ncc(O)cc2F)C(=O)C1=O (stereo partly drawn) [Example 234, (3R)-3-(2-((R)-4-ethyl-6-(hydroxymethyl)-2,3-dioxopiperazine-1-carboxamido)-2-(3-fluoro-5-hydroxypyridin-2-yl)acetamido)-2-hydroxy-3,4-dihydro-2H-benzo[e][1,2]oxaborinine-8-carboxylic acid]	< 30 µM	8 to 16 µg/mL	32 to 64 µg/mL	–	–	MIC (A. baumannii ATCC 19606; ATCC19606, read-out: MIC A. baumannii ATCC 19606): > 128 µg/mL
CCN1CCN(C(=O)NC(C(=O)N[C@H]2Cc3cccc(C(=O)O)c3OB2O)c2csc(N)n2)C(=O)C1=O (stereo partly drawn) [Example 5, (3R)-3-(2-(2-aminothiazol-4-yl)-2-(4-ethyl-2,3-dioxopiperazine-1-carboxamido)acetamido)-2-hydroxy-3,4-dihydro-2H-benzo[e][1,2]oxaborinine-8-carboxylic acid]	–	–	–	–	–	EC50 (E. coli PBP1b): < 10 µM
CCN1CCN(C(=O)NC(C(=O)N[C@H]2Cc3cccc(C(=O)O)c3OB2O)c2ccc(O)cc2F)C(=O)C1=O (stereo partly drawn) [Example 87, (3R)-3-(2-(4-ethyl-2,3-dioxopiperazine-1-carboxamido)-2-(2-fluoro-4-hydroxyphenyl)acetamido)-2-hydroxy-3,4-dihydro-2H-benzo[e][1,2]oxaborinine-8-carboxylic acid]	< 30 µM	–	–	–	–	–
CCNC(=O)NCCN1CCN(C(=O)NC(C(=O)N[C@H]2Cc3cccc(C(=O)O)c3OB2O)c2ccc(O)c(O)c2Cl)C(=O)C1=O (stereo partly drawn) [Example 235, (3R)-3-(2-(2-chloro-3,4-dihydroxyphenyl)-2-(4-(2-(3-ethylureido)ethyl)-2,3-dioxopiperazine-1-carboxamido)acetamido)-2-hydroxy-3,4-dihydro-2H-benzo[e][1,2]oxaborinine-8-carboxylic acid]	< 30 µM	< 0.25 µg/mL	< 0.25 µg/mL	–	0.5 to 1 µg/mL	–
CCN1CCN(C(=O)NC(C(=O)N[C@H]2Cc3cc(F)cc(C(=O)O)c3OB2O)c2csc(N)n2)C(=O)C1=O (stereo partly drawn) [Example 16, (3R)-3-(2-(2-aminothiazol-4-yl)-2-(4-ethyl-2,3-dioxopiperazine-1-carboxamido)acetamido)-6-fluoro-2-hydroxy-3,4-dihydro-2H-benzo[e][1,2]oxaborinine-8-carboxylic acid]	–	–	–	30 to 500 µM	–	–
CCN1C[C@H](CCN)N(C(=O)NC(C(=O)N[C@H]2Cc3ccc(F)c(C(=O)O)c3OB2O)c2ccc(O)c(O)c2Cl)C(=O)C1=O (stereo partly drawn) [Example 238, (3R)-3-(2-((S)-6-(2-aminoethyl)-4-ethyl-2,3-dioxopiperazine-1-carboxamido)-2-(2-chloro-3,4-dihydroxyphenyl)acetamido)-7-fluoro-2-hydroxy-3,4-dihydro-2H-benzo[e][1,2]oxaborinine-8-carboxylic acid]	–	–	< 0.25 µg/mL	30 to 500 µM	0.5 to 1 µg/mL	MIC (P. aeruginosa ATCC 35151; ATCC35151, read-out: MIC P. aeruginosa ATCC 35151): < 0.25 µg/mL
NS(=O)(=O)c1ccc(C(NC(=O)N2CCN(CCF)C(=O)C2=O)C(=O)N[C@H]2Cc3cccc(C(=O)O)c3OB2O)cc1 (stereo partly drawn) [Example 103, (3R)-3-(2-(4-(2-fluoroethyl)-2,3-dioxopiperazine-1-carboxamido)-2-(4-sulfamoylphenyl)acetamido)-2-hydroxy-3,4-dihydro-2H-benzo[e][1,2]oxaborinine-8-carboxylic acid]	< 30 µM	–	–	–	–	–
CCN1C[C@H](CO)N(C(=O)NC(C(=O)N[C@H]2Cc3ccc(F)c(C(=O)O)c3OB2O)c2ccc(O)c(O)c2Cl)C(=O)C1=O (stereo partly drawn) [Example 237, (3R)-3-(2-(2-chloro-3,4-dihydroxyphenyl)-2-((R)-4-ethyl-6-(hydroxymethyl)-2,3-dioxopiperazine-1-carboxamido)acetamido)-7-fluoro-2-hydroxy-3,4-dihydro-2H-benzo[e][1,2]oxaborinine-8-carboxylic acid]	< 30 µM	< 0.25 µg/mL	< 0.25 µg/mL	–	< 0.25 µg/mL	–
CCN1CCN(C(=O)NC(C(=O)N[C@H]2Cc3cccc(C(=O)O)c3OB2O)c2cc(O)c(O)cc2F)C(=O)C1=O (stereo partly drawn) [Example 90, (3R)-3-(2-(4-ethyl-2,3-dioxopiperazine-1-carboxamido)-2-(2-fluoro-4,5-dihydroxyphenyl)acetamido)-2-hydroxy-3,4-dihydro-2H-benzo[e][1,2]oxaborinine-8-carboxylic acid]	< 30 µM	–	–	–	–	–
CNCCN1CCN(C(=O)NC(C(=O)N[C@H]2Cc3cccc(C(=O)O)c3OB2O)c2ccc(O)c(O)c2Cl)C(=O)C1=O (stereo partly drawn) [Example 239, (3R)-3-(2-(2-chloro-3,4-dihydroxyphenyl)-2-(4-(2-(methylamino)ethyl)-2,3-dioxopiperazine-1-carboxamido)acetamido)-2-hydroxy-3,4-dihydro-2H-benzo[e][1,2]oxaborinine-8-carboxylic acid]	–	< 0.25 µg/mL	< 0.25 µg/mL	30 to 500 µM	0.5 to 1 µg/mL	–
NCCCN1CCN(C(=O)N[C@@H](C(=O)N[C@H]2Cc3ccc(F)c(C(=O)O)c3OB2O)c2ccc(O)c(O)c2Cl)C(=O)C1=O [Example 236, (R)-3-((R)-2-(4-(3-aminopropyl)-2,3-dioxopiperazine-1-carboxamido)-2-(2-chloro-3,4-dihydroxyphenyl)acetamido)-7-fluoro-2-hydroxy-3,4-dihydro-2H-benzo[e][1,2]oxaborinine-8-carboxylic acid]	–	< 0.25 µg/mL	< 0.25 µg/mL	30 to 500 µM	< 0.25 µg/mL	–
CCN1CCN(C(=O)NC(C(=O)N[C@H]2Cc3cccc(C(=O)O)c3OB2O)c2ccc(O)cc2)C(=O)C1=O (stereo partly drawn) [Example 27, (3R)-3-(2-(4-ethyl-2,3-dioxopiperazine-1-carboxamido)-2-(4-hydroxyphenyl)acetamido)-2-hydroxy-3,4-dihydro-2H-benzo[e][1,2]oxaborinine-8-carboxylic acid]	–	–	–	30 to 500 µM	–	–
